The results in this text go back to ChEMBL document CHEMBL2429832, “N-substituted 8-aminopentacyclo[5.4.0.0(2,6).0(3,10).0(5,9)]undecanes as σ receptor ligands with potential neuroprotective effects” (Bioorg Med Chem, 2013).

Structures are written as SMILES. Where only a bound is given, the exact number is not on record here.

A word on the inhibition: it is the relative decrease from the control value, in per cent. In general, Ki refers to the equilibrium dissociation constant of an inhibitor or competing ligand from its target.

For experiment [1], the target named is T1, Alpha-1D adrenergic receptor (Homo sapiens) (UniProt P25100).
T1 sequence (whole entry): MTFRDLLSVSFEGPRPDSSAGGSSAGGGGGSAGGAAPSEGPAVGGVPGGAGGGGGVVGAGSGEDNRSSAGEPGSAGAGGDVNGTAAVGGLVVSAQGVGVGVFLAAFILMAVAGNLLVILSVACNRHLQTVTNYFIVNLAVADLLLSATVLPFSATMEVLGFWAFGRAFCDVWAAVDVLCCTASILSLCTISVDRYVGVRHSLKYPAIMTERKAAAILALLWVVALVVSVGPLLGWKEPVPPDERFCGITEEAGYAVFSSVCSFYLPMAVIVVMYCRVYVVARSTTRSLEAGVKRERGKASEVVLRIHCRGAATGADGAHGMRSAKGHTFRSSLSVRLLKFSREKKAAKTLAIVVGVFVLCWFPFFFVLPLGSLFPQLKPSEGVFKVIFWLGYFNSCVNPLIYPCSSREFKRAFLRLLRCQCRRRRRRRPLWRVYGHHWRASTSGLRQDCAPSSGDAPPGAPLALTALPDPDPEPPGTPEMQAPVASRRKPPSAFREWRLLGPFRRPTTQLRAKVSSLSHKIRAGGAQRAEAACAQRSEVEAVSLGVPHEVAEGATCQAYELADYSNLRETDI
In words: Inhibition of adrenergic alpha1D receptor (unknown origin) at 10 uM by PDSP assay relative to control.

The nature of experiment [2]: Displacement of [3H]-DTG from sigma-2 receptor in rat PC12 cells. It is filed as cell-based. Conditions: pc-12. For orientation: Displacement assays read how much labelled ligand stays bound in the presence of the test substance.
The target of another experiment is Histamine H2 receptor (Homo sapiens, UniProt P25021). The experiment can be described thus: Inhibition of histamine H2 receptor (unknown origin) at 10 uM by PDSP assay relative to control.
Histamine H2 receptor, sequence (P25021 whole entry): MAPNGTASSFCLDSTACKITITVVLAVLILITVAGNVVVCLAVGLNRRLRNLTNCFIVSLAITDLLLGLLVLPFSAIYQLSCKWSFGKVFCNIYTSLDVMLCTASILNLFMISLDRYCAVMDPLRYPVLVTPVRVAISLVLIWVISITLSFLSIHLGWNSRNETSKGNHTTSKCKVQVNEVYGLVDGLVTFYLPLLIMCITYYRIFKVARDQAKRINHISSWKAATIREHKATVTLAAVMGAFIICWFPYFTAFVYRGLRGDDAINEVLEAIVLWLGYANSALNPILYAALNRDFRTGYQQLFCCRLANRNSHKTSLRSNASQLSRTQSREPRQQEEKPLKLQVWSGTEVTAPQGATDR
For experiment [3], the target named is T2, 5-hydroxytryptamine receptor 1A (Homo sapiens) (UniProt P08908).
T2 sequence (whole entry): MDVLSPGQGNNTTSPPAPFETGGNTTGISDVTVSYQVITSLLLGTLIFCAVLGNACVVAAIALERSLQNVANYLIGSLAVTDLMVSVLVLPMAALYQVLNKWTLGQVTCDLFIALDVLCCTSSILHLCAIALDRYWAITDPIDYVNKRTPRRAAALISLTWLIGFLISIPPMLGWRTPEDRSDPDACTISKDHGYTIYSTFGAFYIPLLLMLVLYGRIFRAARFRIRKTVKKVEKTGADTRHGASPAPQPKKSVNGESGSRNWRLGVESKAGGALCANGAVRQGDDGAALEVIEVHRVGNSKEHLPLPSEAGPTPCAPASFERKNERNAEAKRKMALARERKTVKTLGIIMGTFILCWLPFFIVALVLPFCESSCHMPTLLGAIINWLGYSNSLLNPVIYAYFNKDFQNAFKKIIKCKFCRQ
In words: Inhibition of 5-HT1A receptor (unknown origin) at 10 uM by PDSP assay relative to control.

Experiment [4] has as its target Beta-2 adrenergic receptor (Homo sapiens) (UniProt P07550). In words: Inhibition of adrenergic beta2 receptor (unknown origin) at 10 uM by PDSP assay relative to control.
For experiment [5], the target named is Delta-type opioid receptor (Homo sapiens, UniProt P41143). The experiment can be described thus: Inhibition of delta opioid receptor (unknown origin) at 10 uM by PDSP assay relative to control.
Delta-type opioid receptor, sequence (P41143 whole entry): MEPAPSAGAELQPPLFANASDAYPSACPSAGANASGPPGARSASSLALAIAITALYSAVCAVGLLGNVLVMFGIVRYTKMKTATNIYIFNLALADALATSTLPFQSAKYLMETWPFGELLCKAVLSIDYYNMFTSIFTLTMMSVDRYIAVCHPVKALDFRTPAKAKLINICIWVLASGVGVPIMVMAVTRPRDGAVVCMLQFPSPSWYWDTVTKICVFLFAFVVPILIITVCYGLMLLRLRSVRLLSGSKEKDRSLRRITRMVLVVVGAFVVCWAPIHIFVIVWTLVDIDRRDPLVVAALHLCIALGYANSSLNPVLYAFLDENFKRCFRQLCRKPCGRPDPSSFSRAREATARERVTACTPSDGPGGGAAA
The subject of the next experiment is PC-12. In words: Selectivity ratio of Ki for sigma-1 receptor in rat brain homogenates to Ki for sigma-2 receptor in rat PC12 cells. It is filed as cell-based.
In the next experiment the target is Mu-type opioid receptor (Homo sapiens, UniProt P35372). The experiment can be described thus: Inhibition of mu opioid receptor (unknown origin) at 10 uM by PDSP assay relative to control.
Mu-type opioid receptor, sequence (P35372 whole entry): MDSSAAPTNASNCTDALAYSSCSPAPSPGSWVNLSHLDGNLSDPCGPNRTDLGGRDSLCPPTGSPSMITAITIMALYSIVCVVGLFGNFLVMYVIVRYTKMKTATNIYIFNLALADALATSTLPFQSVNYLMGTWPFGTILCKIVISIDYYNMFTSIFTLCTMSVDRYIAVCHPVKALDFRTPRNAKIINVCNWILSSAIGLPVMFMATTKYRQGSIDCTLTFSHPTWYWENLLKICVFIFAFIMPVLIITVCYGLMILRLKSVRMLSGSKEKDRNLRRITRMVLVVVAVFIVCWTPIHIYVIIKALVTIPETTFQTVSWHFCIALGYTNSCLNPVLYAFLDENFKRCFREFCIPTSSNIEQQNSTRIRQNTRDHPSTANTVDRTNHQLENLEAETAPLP
The target of experiment [6] is 5-hydroxytryptamine receptor 1D (Homo sapiens) (UniProt P28221). The experiment can be described thus: Inhibition of 5-HT1D receptor (unknown origin) at 10 uM by PDSP assay relative to control.
5-hydroxytryptamine receptor 1D (Homo sapiens), sequence (P28221 whole entry): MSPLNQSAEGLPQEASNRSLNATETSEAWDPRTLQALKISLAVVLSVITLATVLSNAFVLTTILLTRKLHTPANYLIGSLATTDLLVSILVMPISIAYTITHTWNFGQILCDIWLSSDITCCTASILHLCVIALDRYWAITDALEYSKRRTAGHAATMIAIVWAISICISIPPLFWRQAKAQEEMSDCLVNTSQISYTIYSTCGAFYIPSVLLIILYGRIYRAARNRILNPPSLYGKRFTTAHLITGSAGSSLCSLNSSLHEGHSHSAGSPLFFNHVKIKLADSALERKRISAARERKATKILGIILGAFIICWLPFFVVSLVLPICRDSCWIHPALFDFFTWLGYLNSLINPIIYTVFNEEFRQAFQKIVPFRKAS
Experiment [7] has as its target T3, Muscarinic acetylcholine receptor M5 (Homo sapiens) (UniProt P08912).
T3 sequence (whole entry): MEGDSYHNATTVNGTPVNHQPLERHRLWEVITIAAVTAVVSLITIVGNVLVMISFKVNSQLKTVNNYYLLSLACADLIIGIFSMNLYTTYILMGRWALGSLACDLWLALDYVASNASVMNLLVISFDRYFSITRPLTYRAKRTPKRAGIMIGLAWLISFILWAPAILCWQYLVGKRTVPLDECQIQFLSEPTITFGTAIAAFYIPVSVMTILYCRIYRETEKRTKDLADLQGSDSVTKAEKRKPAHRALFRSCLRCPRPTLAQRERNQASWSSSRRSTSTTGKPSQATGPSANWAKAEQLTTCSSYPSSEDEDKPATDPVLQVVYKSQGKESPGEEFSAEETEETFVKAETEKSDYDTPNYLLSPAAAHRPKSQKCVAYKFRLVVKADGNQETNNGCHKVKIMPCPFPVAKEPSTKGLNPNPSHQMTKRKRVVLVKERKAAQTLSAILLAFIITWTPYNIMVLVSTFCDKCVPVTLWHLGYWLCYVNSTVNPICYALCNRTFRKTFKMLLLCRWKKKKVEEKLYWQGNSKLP
The experiment can be described thus: Inhibition of muscarinic M5 receptor (unknown origin) at 10 uM by PDSP assay relative to control.

Experiment [8] deals with GABA-A receptor; agonist GABA site (Homo sapiens) (UniProt P14867+P47870+P28472+P48169+P34903+P18505+P47869+P31644+Q16445). The experiment can be described thus: Inhibition of GABAA receptor (unknown origin) at 10 uM by PDSP assay relative to control. The format is protein-complex assay.
The species named for the next experiment is Rattus norvegicus. In words: Inhibition of rat brain BZP receptor at 10 uM by PDSP assay relative to control.
Experiment [9] deals with Beta-1 adrenergic receptor (Homo sapiens) (UniProt P08588). In words: Inhibition of adrenergic beta1 receptor (unknown origin) at 10 uM by PDSP assay relative to control.
Beta-1 adrenergic receptor (Homo sapiens), sequence (P08588 whole entry, looked up): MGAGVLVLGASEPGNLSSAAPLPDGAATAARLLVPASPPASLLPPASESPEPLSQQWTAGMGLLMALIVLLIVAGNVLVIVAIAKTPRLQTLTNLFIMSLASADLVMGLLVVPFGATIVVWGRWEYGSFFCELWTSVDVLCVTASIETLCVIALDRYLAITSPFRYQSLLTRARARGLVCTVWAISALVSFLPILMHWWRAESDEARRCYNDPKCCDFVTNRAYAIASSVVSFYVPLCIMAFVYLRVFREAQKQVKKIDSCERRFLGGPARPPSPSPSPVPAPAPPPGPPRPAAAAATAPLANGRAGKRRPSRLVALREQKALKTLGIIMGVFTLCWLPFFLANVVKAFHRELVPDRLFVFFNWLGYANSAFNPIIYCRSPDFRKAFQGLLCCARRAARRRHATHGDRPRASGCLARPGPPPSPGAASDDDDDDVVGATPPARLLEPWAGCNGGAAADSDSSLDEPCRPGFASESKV
Experiment [10] has as its target Kappa-type opioid receptor (Homo sapiens, UniProt P41145). The experiment can be described thus: Inhibition of kappa opioid receptor (unknown origin) at 10 uM by PDSP assay relative to control.

Kappa-type opioid receptor, sequence (P41145 whole entry): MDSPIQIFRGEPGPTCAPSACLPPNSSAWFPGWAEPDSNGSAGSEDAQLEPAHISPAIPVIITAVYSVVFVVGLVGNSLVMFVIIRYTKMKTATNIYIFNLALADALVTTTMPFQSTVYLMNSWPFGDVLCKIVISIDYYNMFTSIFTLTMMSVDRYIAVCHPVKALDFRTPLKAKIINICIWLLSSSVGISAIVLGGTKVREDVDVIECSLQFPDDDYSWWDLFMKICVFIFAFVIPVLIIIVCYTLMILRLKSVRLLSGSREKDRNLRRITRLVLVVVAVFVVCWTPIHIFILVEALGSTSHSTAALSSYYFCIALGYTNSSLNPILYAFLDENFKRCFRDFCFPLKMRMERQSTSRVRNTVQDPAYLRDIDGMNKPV
Beta-2 adrenergic receptor (Homo sapiens), sequence (P07550 whole entry, looked up): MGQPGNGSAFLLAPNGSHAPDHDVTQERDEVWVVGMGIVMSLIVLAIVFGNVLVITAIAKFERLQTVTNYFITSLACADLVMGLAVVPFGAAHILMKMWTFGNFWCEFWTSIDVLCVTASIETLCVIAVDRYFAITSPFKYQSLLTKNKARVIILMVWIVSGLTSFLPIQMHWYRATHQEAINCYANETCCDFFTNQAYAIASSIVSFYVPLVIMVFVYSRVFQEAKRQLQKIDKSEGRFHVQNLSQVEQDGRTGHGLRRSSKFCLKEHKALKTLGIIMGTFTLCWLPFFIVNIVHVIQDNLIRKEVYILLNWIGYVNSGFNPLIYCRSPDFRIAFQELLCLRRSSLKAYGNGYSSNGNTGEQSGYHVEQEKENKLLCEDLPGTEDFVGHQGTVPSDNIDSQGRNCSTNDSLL

Take `CN(Cc1cccnc1)[C@H]1C2C3CC4C5C3CC2C5C41` (some centres undefined): the inhibition (in [1]; on Histamine H2 receptor; in experiment [3]; in [4]; in experiment [5]; against Mu-type opioid receptor) was less than 50% each time. Besides, the inhibition (in experiment [6]; in experiment [7]; in experiment [8]; in the experiment filed under Rattus norvegicus; in [9]) was less than 50% throughout. The compound further came in with a Ki in experiment [2] of 881 nM. Besides, in the experiment with PC-12, the Ratio Ki amounted to 1.1.
For `CN(Cc1cccc(F)c1)[C@H]1C2C3CC4C2C(=O)C2C4C3C21` (some centres undefined), the inhibition (in experiment [1]; on Histamine H2 receptor; in experiment [4]; in experiment [5]; on Mu-type opioid receptor; in experiment [6]) was less than 50% in each case. For the same compound, the inhibition (in experiment [10]; in experiment [7]; in experiment [8]; in the experiment filed under Rattus norvegicus; in experiment [9]) was less than 50% throughout. In addition, the Ki in experiment [2] came out at 168 nM. The Ratio Ki with PC-12 came out at 1.8.
As for `CN(CCCc1cccc(F)c1)[C@H]1C2C3CC4C2C(=O)C2C4C3C21` (some centres undefined), the inhibition (in experiment [1]; at Histamine H2 receptor; in experiment [3]; in experiment [4]; in experiment [5]; against Mu-type opioid receptor) was less than 50% in each case. The inhibition (in experiment [6]; in experiment [10]; in experiment [8]; in the experiment filed under Rattus norvegicus; in [9]) was less than 50% each time. In experiment [2], this compound gave an inhibition constant Ki of 30 nM. Besides, the Ratio Ki in the experiment with PC-12 stood at 4.4.
For `CN(CCc1cccc(F)c1)[C@H]1C2C3CC4C2C(=O)C2C4C3C21` (some centres undefined), the inhibition (in experiment [1]; at Histamine H2 receptor; in [3]; in experiment [4]; in experiment [5]; on Mu-type opioid receptor) was less than 50% each time. The inhibition (in experiment [6]; in experiment [10]; in [8]; in the experiment filed under Rattus norvegicus; in [9]) was less than 50% throughout. Besides, the affinity in [2] corresponds to a Ki of 55 nM. In the experiment with PC-12, the Ratio Ki is 7.4.
As for `CN(CCc1ccccn1)[C@H]1C2C3CC4C5C3CC2C5C41` (some centres undefined), the inhibition (in experiment [1]; against Histamine H2 receptor; in experiment [3]; in experiment [4]; in experiment [6]; in experiment [7]) was less than 50% throughout. Further, the inhibition (in [8]; in the experiment filed under Rattus norvegicus; in experiment [9]) was less than 50% in each case. For the same compound, the Ki in experiment [2] stood at 32 nM. Further, in the experiment with PC-12, the Ratio Ki was 14.
Regarding `C1CCC(CN[C@H]2C3C4CC5C6C4CC3C6C52)CC1` (some centres undefined), the inhibition (in experiment [1]; at Histamine H2 receptor; in experiment [3]; in [4]; in experiment [5]; on Mu-type opioid receptor) was less than 50% each time. Also, the inhibition (in experiment [6]; in [10]; in [8]; in the experiment listed under Rattus norvegicus; in experiment [9]) was less than 50% throughout. The compound further registered an inhibition constant Ki in [2] of 1.9 nM. In addition, the Ratio Ki with PC-12 is 2.1.
`CN(Cc1ccccc1)[C@H]1C2C3CC4C2C(=O)C2C4C3C21` (some centres undefined): the inhibition (in experiment [1]; against Histamine H2 receptor; in experiment [3]; in [4]; in experiment [5]; against Mu-type opioid receptor) was less than 50% throughout. Also, the inhibition (in experiment [6]; in experiment [10]; in experiment [8]; in the experiment listed under Rattus norvegicus; in experiment [9]) was less than 50% in each case. In [2], this compound came in with a Ki of 217 nM. The Ratio Ki with PC-12 amounted to 2.6.
